The target in test [1] is T1, Calpain-1 catalytic subunit (Homo sapiens, UniProt P07384).
T1 sequence (P07384 whole entry): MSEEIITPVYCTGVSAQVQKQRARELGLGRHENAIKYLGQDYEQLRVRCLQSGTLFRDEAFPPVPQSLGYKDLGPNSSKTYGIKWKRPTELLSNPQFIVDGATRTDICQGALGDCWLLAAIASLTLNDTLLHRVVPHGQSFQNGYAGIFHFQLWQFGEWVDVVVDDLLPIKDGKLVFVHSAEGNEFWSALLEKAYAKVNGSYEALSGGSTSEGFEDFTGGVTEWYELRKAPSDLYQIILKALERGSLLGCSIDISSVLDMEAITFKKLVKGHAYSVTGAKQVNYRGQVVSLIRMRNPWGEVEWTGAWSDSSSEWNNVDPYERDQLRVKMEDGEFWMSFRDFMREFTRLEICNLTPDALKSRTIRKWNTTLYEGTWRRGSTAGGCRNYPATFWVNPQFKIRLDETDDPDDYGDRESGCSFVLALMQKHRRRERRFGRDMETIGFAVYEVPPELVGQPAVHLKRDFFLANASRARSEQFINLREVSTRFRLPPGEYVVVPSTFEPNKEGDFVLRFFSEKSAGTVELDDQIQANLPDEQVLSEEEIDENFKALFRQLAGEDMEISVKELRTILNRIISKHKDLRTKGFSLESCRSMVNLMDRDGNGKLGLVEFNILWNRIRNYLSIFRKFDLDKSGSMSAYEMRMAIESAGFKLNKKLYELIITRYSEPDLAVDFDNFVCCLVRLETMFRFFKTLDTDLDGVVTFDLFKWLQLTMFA
Put plainly: Inhibitory activity against recombinant human Calpain-I receptor.

For test [2], the target named is Chymotrypsinogen A (Bos taurus) (UniProt P00766). Nature of the test: Inhibitory activity against Bovine pancreas alpha-chymotrypsin at 10 uM.
Test [3] addresses T1, Calpain-1 catalytic subunit. Put plainly: Inhibition of intracellular Calpain-I receptor using intact cell assay system. Type of test: cell-based.
The target in another test is Cathepsin B (Homo sapiens, UniProt P07858). Put plainly: Inhibitory activity against cathepsin B receptor in human liver.
Test [4] has as its target Prothrombin (Homo sapiens) (UniProt P00734). Nature of the test: Inhibitory activity against human plasma thrombin at 10 uM. Type of test: cell-free.

Each structure is given as a SMILES string. Square brackets hold non-standard residues; d marks the D form. Peptide text beside a SMILES is read from it. * marks the point of attachment. d(hPhe) = N[C@H](CCc1ccccc1)C(=O)O; d2Thi = N[C@H](Cc1cccs1)C(=O)O; dPhg = N[C@@H](C(=O)O)c1ccccc1; Abu = CC[C@H](N)C(=O)O; Bn = c1ccc(C*)cc1; Ms = CS(=O)(=O)*

Broadly, the Ki is a dissociation constant, usually derived from enzyme kinetics or from competition with a known ligand. As a reminder, the inhibition is the drop in the measured response relative to a control, in per cent. A higher inhibition goes with strong suppression. By IC50 is commonly meant the concentration that gives 50% inhibition.

Turning to `O=C[C@H](Cc1ccccc1)NC(=O)[C@@H](COCc1ccccc1)NS(=O)(=O)c1ccccc1`, the inhibition constant (Ki) in test [1] turned out to be 22 nM.
With `CS(=O)(=O)N[C@H](COCc1ccccc1)C(=O)N[C@H](C=O)Cc1ccccc1`, the inhibition in test [2] was 23%; in test [4], 0%. Further, the IC50 in test [3] stood at 700 nM. In addition, the Ki is 32 nM at Cathepsin B and 8 nM in test [1].
On to `CCNC(=O)C(=O)[C@H](Cc1ccccc1)NC(=O)[C@@H](COCc1ccccc1)NS(C)(=O)=O`, for which, in test [1], the Ki stood at 130 nM.
On the same count and under the same terms, the figure for `CN([C@H](COCc1ccccc1)C(=O)N[C@H](C=O)Cc1ccccc1)S(C)(=O)=O` is 370 nM.
As to `CCS(=O)(=O)N[C@H](COCc1ccccc1)C(=O)N[C@H](C=O)Cc1ccccc1`, the inhibition in test [2] was determined as 15%; in test [4] it was 9%. For the same molecule, in test [3], it took 400 nM to reach half-maximal inhibition (IC50). Besides, the Ki at Cathepsin B stood at 45 nM; in test [1], 9 nM.
In the case of `CS(=O)(=O)N[C@H](COCc1ccccc1)C(=O)N[C@H](C=O)CCCCNS(=O)(=O)c1ccccc1`, the inhibition in test [2] came out at 13%; in test [4], 0%. Moreover, the IC50 in test [3] was 400 nM. The values for the Ki (on Cathepsin B; in test [1]) were 4 nM and 2 nM, respectively.
For `CC(OCc1ccccc1)[C@@H](NS(C)(=O)=O)C(=O)N[C@H](C=O)Cc1ccccc1` (some centres not stated) the same measures were 3%, 0%, 500 nM, 44 nM and 9 nM.
With `O=C[C@H](Cc1ccccc1)NC(=O)[C@@H](COCc1ccccc1)NS(=O)(=O)c1cccs1`, the Ki in test [1] amounted to 9 nM.
Still for that read-out and setting: the result for `CS(=O)(=O)N[C@H](CS(=O)(=O)Cc1ccccc1)C(=O)N[C@H](C=O)Cc1ccccc1` reads 11 nM.
As for `CS(=O)(=O)N[C@H](Cc1cccs1)C(=O)N[C@H](C=O)Cc1ccccc1` (Ms-[d2Thi]-Phe-aldehyde), the inhibition in test [2] and in test [4] was 0% throughout. This molecule showed an IC50 in test [3] of 300 nM. The Ki on Cathepsin B is 23 nM; in test [1], 11 nM.
As to `CS(=O)(=O)N[C@H](CCc1ccccc1)C(=O)N[C@H](C=O)Cc1ccccc1` (Ms-[d(hPhe)]-Phe-aldehyde), in test [1], the Ki was found to be 28 nM.
For `CS(=O)(=O)N[C@H](CSCc1ccccc1)C(=O)N[C@H](C=O)Cc1ccccc1` (Ms-[dC](Bn)-Phe-aldehyde), the inhibition came out at 16% in test [2] and 7% in test [4]. Further, in test [3], half-maximal inhibition (IC50) was put at 800 nM. Besides, the Ki on Cathepsin B turned out to be 41 nM; in test [1], 6 nM.
For `CS(=O)(=O)N[C@H](Cc1ccccc1)C(=O)N[C@H](C=O)Cc1ccccc1` (Ms-[dF]-Phe-aldehyde) the same measures were 12%, 0%, 600 nM, 120 nM and 11 nM.
Turning to `CC(C)C[C@@H](NS(C)(=O)=O)C(=O)N[C@H](C=O)Cc1ccccc1` (Ms-[dL]-Phe-aldehyde), the Ki in test [1] was found to be 29 nM.
Same read-out and setting: the result for `CS(=O)(=O)N[C@@H](C(=O)N[C@H](C=O)Cc1ccccc1)c1ccccc1` (Ms-[dPhg]-Phe-aldehyde) reads 9 nM; that for `CC(C)C[C@@H](C=O)NC(=O)[C@@H](COCc1ccccc1)NS(C)(=O)=O` (Ms-[dS](Bn)-Leu-aldehyde), 66 nM.
Turning to `CS(=O)(=O)N[C@H](COCc1ccccc1)C(=O)N[C@H](C=O)Cc1ccc(OCc2ccccc2)cc1` (Ms-[dS](Bn)-Tyr(Bn)-aldehyde), the inhibition in test [2] and in test [4] was 0% each time. In test [3], this molecule came in with a 50% inhibitory concentration (IC50) of 700 nM. The Ki at Cathepsin B stood at 45 nM; in test [1], 4 nM.
Consider `CC[C@@H](C=O)NC(=O)[C@@H](COCc1ccccc1)NS(C)(=O)=O` (Ms-[dS](Bn)-[Abu]-aldehyde), for which, in test [1], the Ki came to 36 nM.
Same read-out and setting: the result for `CS(=O)(=O)N[C@H](Cc1c[nH]c2ccccc12)C(=O)N[C@H](C=O)Cc1ccccc1` (Ms-[dW]-Phe-aldehyde) reads 10 nM; that for `CS(=O)(=O)NC(COCc1ccccc1)C(=O)N[C@H](C=O)Cc1ccccc1` (single isomer, unassigned), 41 nM.

For the origin of these results see ChEMBL document CHEMBL1131026, “D-amino acid containing, high-affinity inhibitors of recombinant human calpain I” (J Med Chem, 1998).
